Calls of active or inactive are those of the source. No cut-off for these calls is given here.
Columns and labels:
MDA-MB-231 [1] = test: Inhibition of RNA Polymerase II CTD phosphorylation at ser2 residue in human MDA-MB-231 cells at 1 uM incubated for 24 hrs by Western blotting analysis; type: cell-based
MDA-MB-231 [2] = test: cells; settings: Homo sapiens, MDA-MB-231, 72 h
A549 = test: cells; settings: Homo sapiens, A549, 72 h
HeLa = test: cells; settings: Homo sapiens, 72 h
[3] = Cytotoxicity against human L02 cells assessed as inhibition of cell growth incubated for 72 hrs by MTT assay; type: toxicity, cell-based
MDA-MB-231 [4] = test: Antiproliferative activity against human MDA-MB-231 cells assessed as inhibition of cell growth incubated for 48 hrs by MTT assay; type: functional, cell-based; settings: MDA-MB-231, 48 h
[5] = Selectivity index, ratio of IC50 for the cytotoxicity against human LO2 cells to IC50 for antiproliferative activity against human MDA-MB-231 cells; type: toxicity, cell-based; settings: LO2 cells versus MDA-MB-231 cells, read-out: Ratio IC50
T47D = test: Antiproliferative activity against human T47D cells assessed as inhibition of cell growth by MTT assay; type: functional, cell-based
MDA-MB-231 [6] = test: Antiproliferative activity against human MDA-MB-231 cells assessed as inhibition of cell growth by MTT assay; type: functional, cell-based
MDA-MB-468 = test: Antiproliferative activity against human MDA-MB-468 cells assessed as inhibition of cell growth by MTT assay; type: functional, cell-based
[7] = Cytotoxicity against human L02 cells assessed as inhibition of cell growth by MTT assay; type: toxicity, cell-based
[8] = Cytotoxicity against human MCF-10A cells assessed as inhibition of cell growth by MTT assay; type: toxicity, cell-based
[9] = Cytotoxicity against HEK293T cells assessed as inhibition of cell growth by MTT assay; type: toxicity, cell-based, HEK-293T; settings: human
BT-549 [10] = test: Antiproliferative activity against human BT-549 cells assessed as inhibition of cell growth by MTT assay; type: functional, cell-based
MDA-MB-436 = test: cells; settings: Homo sapiens
MDA-MB-231 [11] = test: cells; settings: Homo sapiens
BT-549 [12] = test: cells; settings: Homo sapiens
MDA-MB-231 [13] = test: Antiproliferative activity against human MDA-MB-231 cells assessed as decrease in sphere size by measuring sphere diameter at 10 uM incubated for 10 days by confocal laser scanning microscopy (reference value: 508.27 micrometer); type: functional; settings: time 10 day
MDA-MB-231 [14] = test: Inhibition of colony formation in human MDA-MB-231 cells at 2 uM incubated for 10 days by crystal violet staining based analysis; type: functional, cell-based; settings: time 10.0 day
CDK9/cyclin T1 = CDK9/cyclin T1 (Homo sapiens, UniProt P50750); test: Inhibition of human CDK9/Cyclin T1 in presence of ATP by radiometric kinase assay; type: protein-complex assay
CDK9/cyclin T1, sequence (O60563 whole entry): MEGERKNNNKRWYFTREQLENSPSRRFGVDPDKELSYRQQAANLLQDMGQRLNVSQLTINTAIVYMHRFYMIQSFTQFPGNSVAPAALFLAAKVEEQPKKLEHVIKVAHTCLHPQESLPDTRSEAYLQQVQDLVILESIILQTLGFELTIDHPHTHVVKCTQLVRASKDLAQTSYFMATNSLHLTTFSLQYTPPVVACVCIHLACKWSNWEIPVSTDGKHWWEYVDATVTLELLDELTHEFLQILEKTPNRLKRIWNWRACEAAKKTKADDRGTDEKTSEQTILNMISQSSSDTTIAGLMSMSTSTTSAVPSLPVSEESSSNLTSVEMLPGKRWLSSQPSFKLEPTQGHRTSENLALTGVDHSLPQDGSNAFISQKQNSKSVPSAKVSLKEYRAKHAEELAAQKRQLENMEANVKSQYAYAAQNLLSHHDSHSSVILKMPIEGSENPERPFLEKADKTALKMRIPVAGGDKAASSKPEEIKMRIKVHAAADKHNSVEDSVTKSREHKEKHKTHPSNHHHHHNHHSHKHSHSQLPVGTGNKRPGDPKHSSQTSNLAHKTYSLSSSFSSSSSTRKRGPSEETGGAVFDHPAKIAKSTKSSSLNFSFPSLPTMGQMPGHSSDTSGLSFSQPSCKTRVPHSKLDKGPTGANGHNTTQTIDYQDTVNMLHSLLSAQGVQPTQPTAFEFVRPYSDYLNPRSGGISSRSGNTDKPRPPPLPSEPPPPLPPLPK
CDK9/cyclin T1, sequence (P50750 whole entry): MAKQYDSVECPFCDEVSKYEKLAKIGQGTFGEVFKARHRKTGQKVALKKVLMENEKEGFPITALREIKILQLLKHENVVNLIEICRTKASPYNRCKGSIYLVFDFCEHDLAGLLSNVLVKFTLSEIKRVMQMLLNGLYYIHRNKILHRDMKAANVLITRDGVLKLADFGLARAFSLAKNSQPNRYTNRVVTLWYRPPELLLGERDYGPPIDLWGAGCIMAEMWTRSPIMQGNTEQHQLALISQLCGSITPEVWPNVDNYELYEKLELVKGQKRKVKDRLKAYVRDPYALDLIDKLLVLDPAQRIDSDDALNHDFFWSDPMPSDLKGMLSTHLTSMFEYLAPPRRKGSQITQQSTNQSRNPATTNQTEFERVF

HepG2 = test: cells; settings: Homo sapiens, HepG2, 72 h
[15] = Cytotoxicity against HK-2 cells assessed as inhibition of cell growth incubated for 72 hrs by MTT assay; type: toxicity, cell-based; settings: human
MDA-MB-231 [16] = test: Induction of apoptosis in human MDA-MB-231 cells assessed as early apoptotic cells at 1000 nM incubated for 72 hrs by Annexin V-FITC/PI staining based flow cytometry analysis (reference value: 0.66 %); type: functional
MDA-MB-231 [17] = test: Induction of apoptosis in human MDA-MB-231 cells assessed as viable cells at 1000 nM incubated for 72 hrs by Annexin V-FITC/PI staining based flow cytometry analysis (reference value: 94.81 %); type: functional; settings: read-out: Activity
[18] = molecular target: CDK9/cyclin T1 (Homo sapiens) (UniProt O60563+P50750); test: Inhibition of CDK9/Cyclin T1 protein-protein interaction in human MDA-MB-231 cells at 3 uM incubated for 8 hrs by co-immunoprecipitation assay; type: cell-based
MDA-MB-231 [19] = test: Induction of apoptosis in human MDA-MB-231 cells assessed as necrotic cells at 1000 nM incubated for 72 hrs by Annexin V-FITC/PI staining based flow cytometry analysis (reference value: 0.49 %); type: functional
4T1 = test: cells; settings: Mus musculus, 4T1, 72 h
[20] = Cytotoxicity against human MRC5 cells assessed as inhibition of cell growth incubated for 72 hrs by MTT assay; type: toxicity, cell-based
BT-549 [21] = test: cells; settings: Homo sapiens, BT-549, 72 h
Hs-578T = test: cells; settings: Homo sapiens, 72 h
[22] = Cytotoxicity against human MCF-10A cells assessed as inhibition of cell growth incubated for 72 hrs by MTT assay; type: toxicity, cell-based
MDA-MB-231 [23] = test: Induction of apoptosis in human MDA-MB-231 cells assessed as late apoptotic cells at 1000 nM incubated for 72 hrs by Annexin V-FITC/PI staining based flow cytometry analysis (reference value: 4.04 %); type: functional

Row | SMILES | IC50 (MDA-MB-231 [2]) [µM] | IC50 (A549) [µM] | IC50 (HeLa) [µM] | IC50 at 72 h [3] [µM] | other results
1 | COc1ccc(CC(=O)Nc2cc(-c3ccnc(N4CCC(O)CC4)c3)ccn2)cc1 | 7.86 | > 10 | > 10 | > 10 | inhibition (MDA-MB-231 [1]): Active
2 | Cc1cccc(C(=O)Nc2cc(-c3ccnc(N4CCC(C)CC4)c3)ccn2)c1 | 3.14 | > 10 | > 10 | 6.37 | 
3 | Cc1sc2c(c1C)C(c1ccc(Cl)cc1)=N[C@@H](CC(=O)OC(C)(C)C)c1nnc(C)n1-2 |  |  |  |  | IC50 (MDA-MB-231 [4]): 3.15 µM
4 | COc1ccc(C(=O)Nc2cc(-c3ccnc(N4CCC(NC(=O)OC(C)(C)C)CC4)c3)ccn2)cc1 | 0.199 | 3.29 | > 10 | 0.538 | 
5 | COc1ccc(C(=O)Nc2cc(-c3ccnc(N4CCN(C)CC4)c3)ccn2)cc1 | 0.485 | 4.1 | > 10 | > 10 | 
6 | COc1ccc(C(=O)Nc2cc(-c3ccnc(N4CCC(N)CC4)c3)ccn2)cc1 | 1.16 | 2.37 | > 10 | 1.38 | 
7 | CC1CCN(c2cc(-c3ccnc(NC(=O)c4ccc(F)cc4)c3)ccn2)CC1 | > 10 | > 10 | > 10 | > 10 | 
8 | COc1ccc(C(=O)Nc2cc(-c3ccnc(N4CCCC(CO)C4)c3)ccn2)cc1 (stereo unspecified) | 0.076 | 2.44 | 0.272 | 2.6 | selectivity ratio [5]: 34
9 | Cc1ccc(C(=O)Nc2cc(-c3ccnc(N4CCC(O)CC4)c3)ccn2)cc1 | 0.261 | 2.4 | 3.28 | 0.875 | inhibition (MDA-MB-231 [1]): Active
10 | CCN1CCN(c2cc(-c3ccnc(NC(=O)c4ccc(OC)cc4)c3)ccn2)CC1 | 1 | 1.58 | 3.26 | 6.89 | 
11 | CC1CCN(c2cc(-c3ccnc(NC(=O)c4ccc(C(F)(F)F)cc4)c3)ccn2)CC1 | 3.18 | > 10 | 7.79 | > 10 | 
12 | CCOc1cc(/C=N/O)ccc1OCC#CC1c2c(cc3c(c2OC)OCO3)CCN1C (stereo unspecified) |  |  |  |  | IC50 (T47D): 52.5 µM; IC50 (MDA-MB-231 [6]): 6.2 µM; IC50 (MDA-MB-468): 7.4 µM; IC50 [7]: > 100 µM; IC50 [8]: 35.5 µM; IC50 [9]: > 100 µM; IC50 (BT-549 [10]): 12.6 µM
13 | O=C(Nc1cc(-c2ccnc(N3CCC(O)CC3)c2)ccn1)c1cc(Cl)cc(Cl)c1 | > 10 | > 10 | > 10 | > 10 | 
14 | O=C(Nc1cc(-c2ccnc(N3CCCC(CO)C3)c2)c(Cl)cn1)c1ccc(F)cc1 (stereo unspecified) | 0.585 | 1.85 | 0.276 | > 10 | 
15 | O=C(Nc1cc(-c2ccnc(N3CCC(O)CC3)c2)ccn1)c1ccccc1Cl | > 10 | > 10 | > 10 | > 10 | 
16 | COc1ccc(CNc2cc(-c3ccnc(N4CCC(O)CC4)c3)ccn2)cc1 | 3.21 | > 10 | > 10 | > 10 | inhibition (MDA-MB-231 [1]): Active
17 | Cc1ccccc1C(=O)Nc1cc(-c2ccnc(N3CCC(O)CC3)c2)ccn1 | > 10 | > 10 | > 10 | > 10 | 

Row | SMILES | IC50 (MDA-MB-231 [2]) [µM] | IC50 (A549) [µM] | IC50 (HeLa) [µM] | IC50 at 72 h [3] [µM] | other results
18 | O=C(Nc1cc(-c2ccnc(N3CCC(O)CC3)c2)ccn1)c1ccc(C(F)(F)F)cc1 | 0.112 | 1.65 | 0.257 | 1.96 | inhibition (MDA-MB-231 [1]): Active
19 | Cc1ccc(C(=O)Nc2cc(-c3ccnc(N4CCCC(O)C4)c3)ccn2)cc1 (stereo unspecified) | 0.726 | > 10 | 1.99 | 0.591 | 
20 | COc1cc(F)ccc1-c1ncnc(Nc2cccc(C[S@](C)(=N)=O)c2)n1 [ATUVECICLIB] |  |  |  |  | IC50 (MDA-MB-436): 0.63 µM; IC50 (MDA-MB-231 [11]): 1.32 µM; IC50 (BT-549 [12]): 2.01 µM
21 | COc1ccc(C(=O)Nc2cc(-c3ccnc(N(C)CCO)c3)ccn2)cc1 | 0.367 | > 10 | 0.527 | 1.12 | 
22 | COc1cccc(C(=O)Nc2cc(-c3ccnc(N4CCC(O)CC4)c3)ccn2)c1 | 3.94 | 2.88 | > 10 | 2.98 | inhibition (MDA-MB-231 [1]): Active
23 | CCOc1ccc(C(=O)Nc2cc(-c3ccnc(N4CCC(O)CC4)c3)ccn2)cc1 | 0.103 | 5.34 | 1.36 | 0.132 | inhibition (MDA-MB-231 [1]): Active; selectivity ratio [5]: 1
24 | CC1CCCN(c2cc(-c3ccnc(NC(=O)c4ccc(F)cc4)c3)ccn2)C1 (stereo unspecified) | 0.273 | 4.32 | 0.474 | 1.23 | 
25 | COc1cc(C(=O)Nc2cc(-c3ccnc(N4CCC(O)CC4)c3)ccn2)cc(OC)c1OC | 1.74 | 5.68 | 5.73 | > 10 | inhibition (MDA-MB-231 [1]): Active
26 | COc1ccc(CCC(=O)Nc2cc(-c3ccnc(N4CCC(O)CC4)c3)ccn2)cc1 | > 10 | > 10 | > 10 | > 10 | inhibition (MDA-MB-231 [1]): Active
27 | COc1ccc(C(=O)Nc2cc(-c3ccnc(N4CCC(C)CC4)c3)ccn2)cc1 | 0.184 | 2.71 | 1.59 | 4.17 | 
28 | Cc1ccc(C(=O)Nc2cc(-c3ccnc(N4CCC(C)CC4)c3)ccn2)cc1 | 1.28 | > 10 | 3.85 | > 10 | 
29 | O=C(c1cc(Cc2n[nH]c(=O)c3ccccc23)ccc1F)N1CCN(C(=O)C2CC2)CC1 [OLAPARIB] |  |  |  |  | IC50 (MDA-MB-231 [4]): > 50 µM; Activity (MDA-MB-231 [13]): 472.83 um; inhibition (MDA-MB-231 [14]): inactive
30 | N[C@H]1CC[C@H](Nc2cc(-c3cccc(NCc4cccc(F)c4)n3)c(Cl)cn2)CC1 | 0.08 | 1.62 | 0.15 | 0.278 | IC50 (CDK9/cyclin T1): < 0.0004 µM; IC50 (HepG2): 0.473 µM; IC50 at 72 h [15]: 0.187 µM; Activity (MDA-MB-231 [16]): 37.6%; viability at 1 µM (MDA-MB-231 [17]): 19.3%; inhibition [18]: inactive; Activity (MDA-MB-231 [19]): 0.2%; IC50 (4T1): 0.116 µM; IC50 at 72 h [20]: 0.197 µM; IC50 (BT-549 [21]): 0.053 µM; selectivity ratio [5]: 3; IC50 (Hs-578T): 0.074 µM; IC50 at 72 h [22]: 0.108 µM; Activity (MDA-MB-231 [23]): 42.9%
31 | O=P1(N(CCCl)CCCl)NCCCO1 (stereo unspecified) [CYCLOPHOSPHAMIDE ANHYDROUS] |  |  |  |  | IC50 (MDA-MB-231 [4]): > 50 µM
32 | O=c1[nH]cc(F)c(=O)[nH]1 [FLUOROURACIL] |  |  |  |  | IC50 (MDA-MB-231 [4]): 13.9 µM
33 | COc1cccc2c1C(=O)c1c(O)c3c(c(O)c1C2=O)C[C@@](O)(C(=O)CO)C[C@@H]3O[C@H]1C[C@H](N)[C@H](O)[C@H](C)O1 [DOXORUBICIN] |  |  |  |  | IC50 (MDA-MB-231 [4]): 0.153 µM
34 | CC(=O)O[C@H]1C(=O)[C@@]2(C)[C@H]([C@H](OC(=O)c3ccccc3)[C@]3(O)C[C@H](OC(=O)[C@H](O)[C@@H](NC(=O)c4ccccc4)c4ccccc4)C(C)=C1C3(C)C)[C@]1(OC(C)=O)CO[C@@H]1C[C@@H]2O [PACLITAXEL] |  |  |  |  | IC50 (MDA-MB-231 [4]): < 0.005 µM

— ChEMBL document CHEMBL5634134, “Design, synthesis, and biological evaluation of novel 4,4'-bipyridine derivatives acting as CDK9-Cyclin T1 protein-protein interaction inhibitors against triple-negative breast cancer” (Eur J Med Chem, 2023)
